Source: patent publication US8278320B2, “Azabicyclo[2.2.1]heptane compounds as alpha-7 nicotinic acetylcholine receptor ligands” (Bristol-Myers Squibb Company, priority 2009, dated 2012)
Where two headings read alike, the source gives them in different places.

Assays:
[1] = target: T1, α-7 nicotinic ACh receptor ion channel expressed in mammalian HEK 293 cells (Rattus norvegicus, UniProt Q05941); assay: Ca2+-sensitive, fluorescence-based FLIPR assay for α-7 nicotinic acetylcholine receptor channel function (agonist activity); format: cell-based
Protocol: I) α7 Nicotinic Acetycholine Receptor Binding. Membranes were prepared for binding using HEK293 cells stably expressing the rat α7 nicotinic acetycholine receptor (rat α7 nAChR). Cells were homogenized at 4° C. in hypotonic lysis buffer consisting of 10 mM Tris (pH 7.4), 5 mM EDTA and protease inhibitors and centrifuged at 32000×g for 20 minutes. The pellet was washed once in membrane wash buffer consisting of 50 mM Tris (pH 7.4), 1 mM EDTA and protease inhibitors and centrifuged at 32000×g for 20 minutes. This pellet was then resuspended in assay buffer consisting 50 mM KH2PO4 (pH 7.4 at 25° C.), 1 mM EDTA, 0.005% Triton-X 100 and 0.1% (v/v) Sigma Protease Inhibitor Cocktail. Aliquots were then frozen in dry ice/ethanol and kept at −80° C. until the day of the assay. II) A Ca^2+-Sensitive, Fluorescence-Based Assay α-7 for Nicotinic Acetylcholine Receptor Channel Function In Mammalian Cells (“FLIPR”). Summary: Lead compounds are evaluated for agonist activity at α-7, α3β4, α4αβ2, and α1β1δ1ε sub-types of nicotinic ACh receptor ion channels expressed in mammalian HEK 293 cells. Agonist potency and efficacy values are determined from kinetic fluorescence Ca^2+ influx measurements made using a 384 well FLIPR (Fluorescence Image Plate Reader). […] The basal fluorescence from the cells is monitored in real time, followed by the acute addition of test compounds. […]
Target sequence in this assay (Q05941 23-502 limits assumed): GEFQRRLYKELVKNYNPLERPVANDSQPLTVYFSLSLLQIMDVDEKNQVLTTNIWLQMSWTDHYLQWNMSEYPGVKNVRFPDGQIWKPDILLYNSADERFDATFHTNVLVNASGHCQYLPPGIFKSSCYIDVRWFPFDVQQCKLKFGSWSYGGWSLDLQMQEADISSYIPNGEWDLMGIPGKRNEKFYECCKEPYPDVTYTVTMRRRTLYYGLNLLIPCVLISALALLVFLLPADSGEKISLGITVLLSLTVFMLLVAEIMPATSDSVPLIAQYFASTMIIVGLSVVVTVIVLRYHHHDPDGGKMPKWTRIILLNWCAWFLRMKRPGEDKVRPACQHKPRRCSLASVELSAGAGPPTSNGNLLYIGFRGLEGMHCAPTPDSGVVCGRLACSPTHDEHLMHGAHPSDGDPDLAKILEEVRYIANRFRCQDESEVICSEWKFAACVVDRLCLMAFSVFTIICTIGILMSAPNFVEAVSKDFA

[2] = target: T1, α-7 nicotinic ACh receptor ion channel expressed in mammalian HEK 293 cells; assay: as above; format: cell-based; design: expressed in transfected cells; settings: Ca2+ flux, HEK-293 cells, Fluo-4
Protocol: I) α7 Nicotinic Acetycholine Receptor Binding. Membranes were prepared for binding using HEK293 cells stably expressing the rat α7 nicotinic acetycholine receptor (rat α7 nAChR). Cells were homogenized at 4° C. in hypotonic lysis buffer consisting of 10 mM Tris (pH 7.4), 5 mM EDTA and protease inhibitors and centrifuged at 32000×g for 20 minutes. The pellet was washed once in membrane wash buffer consisting of 50 mM Tris (pH 7.4), 1 mM EDTA and protease inhibitors and centrifuged at 32000×g for 20 minutes. This pellet was then resuspended in assay buffer consisting 50 mM KH2PO4 (pH 7.4 at 25° C.), 1 mM EDTA, 0.005% Triton-X 100 and 0.1% (v/v) Sigma Protease Inhibitor Cocktail. Aliquots were then frozen in dry ice/ethanol and kept at −80° C. until the day of the assay. II) A Ca^2+-Sensitive, Fluorescence-Based Assay α-7 for Nicotinic Acetylcholine Receptor Channel Function In Mammalian Cells (“FLIPR”). Summary: Lead compounds are evaluated for agonist activity at α-7, α3β4, α4αβ2, and α1β1δ1ε sub-types of nicotinic ACh receptor ion channels expressed in mammalian HEK 293 cells. Agonist potency and efficacy values are determined from kinetic fluorescence Ca^2+ influx measurements made using a 384 well FLIPR (Fluorescence Image Plate Reader). […] In this assay, channel expressing HEK cell lines seeded in 384 well assay plates are loaded with a membrane permeant fluorescent Ca^2+ indicator dye, whose 510 nm green emission signal increases in response to elevation of intracellular Ca^2+ concentration. The basal fluorescence from the cells is monitored in real time, followed by the acute addition of test compounds.
Materials and Methods: Reagents: The acetomethoxy (AM) ester of the Ca^2+ indicator dye Fluo-4 was obtained from InVitrogen, (Carlsbad, Calif.). Acetylcholine and all buffer constituents were purchased from Sigma Chemical Company, St. Louis, Mo. G418 and Minimal Essential Medium were purchased from InVitrogen Life Technologies, Carlsbad, Calif. Fetal bovine serum was purchased from (InVitrogen, Carlsbad, Calif.).
Cell Culture: HEK-293 cells were grown in Minimal Essential Medium containing 10% (v/v) fetal bovine serum at 37° C. in a 5% CO2 incubator. HEK-293 cells stably expressing the ion channels were grown in the same medium with the addition of 500 μg/ml G418.
Ca^2+ flux assays of Ca^2+ channels expressed in HEK-293 cells: HEK-293 cells expressing the ion channels of interest were plated in 384 well, black-walled, clear-bottomed, poly-D-lysine coated plates at a density of ˜20,000 cells/well in 20 μl of Minimal Essential Medium containing 10% (v/v) fetal bovine serum and incubated for 2 days at 29° C. in a 5% CO2 incubator. Prior to assay, cells were loaded with the Fluo-4 AM ester. […] Dye loading was allowed to proceed for 90 minutes at room temperature at which time the dye loading solution was removed and replaced with 40 μl/well of Hanks buffer. Cells loaded with dye were loaded onto a FLIPR384 (Molecular Devices, Sunnyvale, Calif.). Fluo-4 dye was excited using the 488 nm line of an argon laser. Emission was filtered using a 540+/−30 nm bandpass filter. For evaluation of the effects of test compounds using the Ca^2+ flux assay, compounds to be tested were provided in assay ready plates. For nicotinic receptor ion channel expressing cells, the assay was initiated by the addition of 20 μl/well of Hanks buffer containing test compounds. For all assays, data were collected at 1 Hz for 10 seconds (baseline), at which time the compound containing stimulus buffers are added, and further measurements collected at 0.33 Hz for 3 min.
Data Analysis: The statistical robustness of the nicotinic receptor Ca^2+ flux assays is determined from blanks and totals wells. […] The raw fluorescence units data files generated on the FLIPR plate reader are automatically exported and processed by in-house data analysis tools.
Target sequence in this assay (Q05941 23-502): as the sequence (Q05941 23-502 limits assumed) above

[3] = FLIPR α7-HI (EC50, nM), agonist potency
[4] = FLIPR α7 activity rating (EC50, nM), agonist potency class
[5] = agonist potency class, read-out: FLIPR α7 activity rating (EC50)

**Q.** For `c1ccc2sc(NC3=NC[C@@]4(CN5CC[C@@H]4C5)O3)nc2c1`, which EC50 [1] is on record?
**A.** < 100 nM

**Q.** `c1cnc2sc(NC3=NCC4(CN5CCC4C5)O3)nc2c1` (single isomer, unassigned) [Example 8a] was tested. Which EC50 [2, 3] did it give?
**A.** 121 nM

**Q.** And the EC50 [2, 4]?
**A.** 100 to 1000 nM

**Q.** How did the EC50 [2, 4] turn out when `c1cnc2sc(NC3=NCC4(CN5CCC4C5)O3)nc2c1` (single isomer, unassigned) [Example 8b] was run?
**A.** < 100 nM

**Q.** How did the EC50 [2, 4] turn out when `c1ccc2cc(NC3=NCC4(CN5CCC4C5)O3)ncc2c1` (single isomer, unassigned) [Example 16a] was run?
**A.** 1000 to 100000 nM

**Q.** Which EC50 [2, 4] does the source give for `c1ccc2cc(NC3=NCC4(CN5CCC4C5)O3)ncc2c1` (single isomer, unassigned) [Example 16b] here?
**A.** < 100 nM

**Q.** With `c1cnc2sc(NC3=NCC4(CN5CCC4C5)O3)nc2c1` (single isomer, unassigned) [Example 17a] as the compound, how does the EC50 [2, 4] read?
**A.** 1000 to 100000 nM

**Q.** Which results are given for `c1cnc2sc(NC3=NCC4(CN5CCC4C5)O3)nc2c1` (single isomer, unassigned) [Example 17b]?
**A.** EC50 [2, 3]: 35 nM; EC50 [2, 4]: < 100 nM

**Q.** How did the EC50 [2, 3] turn out when `c1cncc(-c2cc(NC3=NC[C@@]4(C[N@@]5CC[C@@H]4C5)O3)ncn2)c1` [Example 11, (3R,4R)—N-(6-(Pyridin-3-yl)pyrimidin-4-yl)-4′H-1-azaspiro[bicyclo[2.2.1]heptane-3,5′-oxazol]-2′-amine] was run?
**A.** 34 nM

**Q.** What about the EC50 [2, 4] of the same compound?
**A.** < 100 nM

**Q.** With `COc1cc(NC2=NC[C@@]3(C[N@@]4CC[C@@H]3C4)O2)ncn1` [Example 13, (3R,4R)—N-(6-Methoxypyrimidin-4-yl)-4′H-1-azaspiro[bicyclo[2.2.1]heptane-3,5′-oxazol]-2′-amine] as the compound, how does the EC50 [2, 4] read?
**A.** 100 to 1000 nM

**Q.** `Clc1cnc(NC2=NC[C@@]3(C[N@@]4CC[C@@H]3C4)O2)cn1` [Example 14, (3R,4R)—N-(5-Chloropyrazin-2-yl)-4′H-1-azaspiro[bicyclo[2.2.1]heptane-3,5′-oxazol]-2′-amine] was tested. Which EC50 [2, 4] did it give?
**A.** 100 to 1000 nM

**Q.** With `c1ccc(-c2ccnc(NC3=NC[C@@]4(C[N@@]5CC[C@@H]4C5)O3)n2)cc1` [Example 15, (3R,4R)—N-(4-Phenylpyrimidin-2-yl)-4′H-1-azaspiro[bicyclo[2.2.1]heptane-3,5′-oxazol]-2′-amine] as the compound, how does the EC50 [2, 4] read?
**A.** < 100 nM

**Q.** How did the EC50 [2, 4] turn out when `c1cc(-c2cc(NC3=NC[C@@]4(C[N@@]5CC[C@@H]4C5)O3)ncn2)ccn1` [Example 18, (3R,4R)—N-(6-(Pyridin-4-yl)pyrimidin-4-yl)-4′H-1-azaspiro[bicyclo[2.2.1]heptane-3,5′-oxazol]-2′-amine] was run?
**A.** < 100 nM

**Q.** How did the EC50 [2, 3] turn out when `c1cn(-c2cc(NC3=NC[C@@]4(C[N@@]5CC[C@@H]4C5)O3)ncn2)cn1` [Example 19, (3R,4R)—N-(6(1H-Imidazol-1-yl)pyrimidin-4-yl)-4′H-1-azaspiro[bicyclo[2.2.1]heptane-3,5′-oxazol]-2′-amine] was run?
**A.** 45 nM

**Q.** And the EC50 [2, 4]?
**A.** < 100 nM

**Q.** `Clc1cn(-c2cc(NC3=NC[C@@]4(C[N@@]5CC[C@@H]4C5)O3)ncn2)cn1` [Example 20, (3R,4R)—N-(6-(4-Chloro-1H-imidazol-1-yl)pyrimidin-4-yl)-4′H-1-azaspiro[bicyclo[2.2.1]heptane-3,5′-oxazol]-2′-amine] was tested. Which EC50 [2, 3] did it give?
**A.** 129 nM

**Q.** What about the EC50 [2, 4] of the same compound?
**A.** 100 to 1000 nM

**Q.** `c1nc(NC2=NC[C@@]3(C[N@@]4CC[C@@H]3C4)O2)cc(-n2cncn2)n1` [Example 21, (3R,4R)—N-(6-(1H-1,2,4-Triazol-1-yl)pyrimidin-4-yl)-4′H-1-azaspiro[bicyclo[2.2.1]heptane-3,5′-oxazol]-2′-amine] was tested. Which EC50 [2, 4] did it give?
**A.** < 100 nM

**Q.** With `Cc1cn(-c2cc(NC3=NC[C@@]4(C[N@@]5CC[C@@H]4C5)O3)ncn2)cn1` [Example 22, (3R,4R)—N-(6-(4-Methyl-1H-imidazol-1-yl)pyrimidin-4-yl)-4′H-1-azaspiro[bicyclo[2.2.1]heptane-3,5′-oxazol]-2′-amine] as the compound, how does the EC50 [2, 4] read?
**A.** 100 to 1000 nM

**Q.** Which EC50 [2, 5] does the source give for `COc1c(NC2=NC[C@@]3(C[N@@]4CC[C@@H]3C4)O2)ncnc1N1CCCC1` [Example 23, (3R,4R)—N-(5-Methoxy-6-(pyrrolidin-1-yl)pyrimidin-4-yl)-4′H-1-azaspiro[bicyclo[2.2.1]heptane-3,5′-oxazol]-2′-amine] here?
**A.** < 100 nM

**Q.** With `c1ccc2nc(NC3=NC[C@@]4(C[N@@]5CC[C@@H]4C5)O3)nnc2c1` [Example 24, (3R,4R)—N-(Benzo[e][1,2,4]triazin-3-yl)-4′H-1-azaspiro[bicyclo[2.2.1]heptane-3,5′-oxazol]-2′-amine] as the compound, how does the EC50 [2, 5] read?
**A.** < 100 nM

**Q.** How did the EC50 [2, 5] turn out when `Clc1ccc2oc(NC3=NC[C@@]4(C[N@@]5CC[C@@H]4C5)O3)nc2c1` [Example 25, (3R,4R)—N-(5-Chlorobenzo[d]oxazol-2-yl)-4′H-1-azaspiro[bicyclo[2.2.1]heptane-3,5′-oxazol]-2′-amine] was run?
**A.** < 100 nM

**Q.** How did the EC50 [2, 4] turn out when `c1nc(NC2=NC[C@@]3(C[N@@]4CC[C@@H]3C4)O2)c2sccc2n1` [Example 27, (3R,4R)—N-(Thieno[3,2-d]pyrimidin-4-yl)-4′H-1-azaspiro[bicyclo[2.2.1]heptane-3,5′-oxazol]-2′-amine] was run?
**A.** 100 to 1000 nM

**Q.** What does the source list for `Cc1csc2c(NC3=NC[C@@]4(C[N@@]5CC[C@@H]4C5)O3)ncnc12` [Example 28, (3R,4R)—N-(7-Methylthieno[3,2-d]pyrimidin-4-yl)-4′H-1-azaspiro[bicyclo[2.2.1]heptane-3,5′-oxazol]-2′-amine]?
**A.** EC50 [2, 3]: 222 nM; EC50 [2, 4]: 100 to 1000 nM

**Q.** `Cc1ccc2nc(NC3=NC[C@@]4(C[N@@]5CC[C@@H]4C5)O3)oc2c1` [Example 29, (3R,4R)—N-(6-Methylbenzo[d]oxazol-2-yl)-4′H-1-azaspiro[bicyclo[2.2.1]heptane-3,5′-oxazol]-2′-amine] was tested. Which EC50 [2, 5] did it give?
**A.** < 100 nM
